Measured values: patent US10760052B2, “Method of inhibiting tau phosphorylation” (priority 2012, dated 2020)
Where two headings read alike, the source gives them in different places.

Molecular target: T1, mu opiate receptor (MOR) (Rattus norvegicus, UniProt P33535)
T1 construct: from tissue; host or cells: striatum (membrane preparation)
Assay type: biochemical
Details: for Concentration of FLNA-Binding Compound as Agonist 0.1 μM / Concentration of FLNA-Binding Compound as Agonist 1 μM / Concentration of FLNA-Binding Compound as Agonist 1 μM + BFNA: [35S]GTPγS binding to Gαo in striatal membranes; for Concentration of FLNA-Binding Compound as Agonist 0.1 μM: compound 0.1 μM; for Concentration of FLNA-Binding Compound as Agonist 1 μM: compound 1 μM; for Concentration of FLNA-Binding Compound as Agonist 1 μM + BFNA: compound 1 μM plus 1 μM β-funaltrexamine (MOR antagonist)

[1] = 0.1 μM compound, striatal membranes, Series C-2
[2] = 1 μM compound + 1 μM β-FNA (selective MOR antagonist), Series C-2
[3] = 1 μM compound, striatal membranes, Series C-2

T1 sequence (P33535 whole entry): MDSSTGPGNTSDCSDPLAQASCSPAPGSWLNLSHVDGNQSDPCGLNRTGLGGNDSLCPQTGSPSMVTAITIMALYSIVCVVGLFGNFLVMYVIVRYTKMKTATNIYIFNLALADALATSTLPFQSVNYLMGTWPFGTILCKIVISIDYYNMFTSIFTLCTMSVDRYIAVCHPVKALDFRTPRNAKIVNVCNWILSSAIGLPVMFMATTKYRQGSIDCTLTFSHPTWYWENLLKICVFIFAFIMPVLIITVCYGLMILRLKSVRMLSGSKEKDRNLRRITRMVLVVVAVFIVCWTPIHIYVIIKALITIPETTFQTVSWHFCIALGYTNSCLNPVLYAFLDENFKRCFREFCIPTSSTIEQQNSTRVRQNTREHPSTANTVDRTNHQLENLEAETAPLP

Row | SMILES | % DAMGO (0.1 μM) [%] | % DAMGO (1 μM) [%] | % DAMGO + BFNA [%] | Concentration of FLNA-Binding Compound as Agonist 0.1 μM [%] | Concentration of FLNA-Binding Compound as Agonist 1 μM [%] | Concentration of FLNA-Binding Compound as Agonist 1 μM + BFNA [%] | [35S]GTPγS binding, FLNA-Binding Compound as Agonist at 0.1 μM [1] [%] | [35S]GTPγS binding, FLNA-Binding Compound as Agonist at 1 μM + BFNA [2] [%] | [35S]GTPγS binding, FLNA-Binding Compound as Agonist at 1 μM [3] [%] | [35S]GTPγS binding, FLNA-Binding Compound as Agonist at 0.1 μM [%] | [35S]GTPγS binding, FLNA-Binding Compound as Agonist at 1 μM [%] | [35S]GTPγS binding, FLNA-Binding Compound as Agonist at 1 μM + BFNA [%]
1 | COc1c2c(cc3c1C(CC(=O)/C=C/c1ccc(Cl)cc1)[N+](C)(C)CC3)OCO2 (stereo not drawn) [Compound B0019] | 59.7 | 96.0 | 123.3 | 101.0 | 256.5 | 81.4 | – | – | – | – | – | –
2 | COc1ccc(S(=O)(=O)N2CCC3(CC2)NCCO3)cc1 [Compound C0026] | 107.7 | 105.6 | 48.3 | – | – | – | 207.2 | 21.2 | 288.4 | – | – | –
3 | O=C1CN(Cc2ccccc2)C2(CCNCC2)N1 [Compound C0115M] | 105.7 | 102.0 | 249.3 | – | – | – | – | – | – | 177.2 | 226.8 | 118.4
4 | O=C(c1ccc([N+](=O)[O-])cc1)N1CCC2(CC1)OCCN2S(=O)(=O)c1ccc([N+](=O)[O-])cc1 [Compound C0033] | 85.9 | 80.6 | 235.0 | 134.5 | 186.4 | 76.6 | – | – | – | – | – | –
5 | COc1ccccc1CC(O)CC1c2c(cc3c(c2OC)OCO3)CC[N+]1(C)C (stereo not drawn) [Compound B0032] | 115.0 | 109.0 | 35.5 | 221.1 | 297.7 | 15.6 | – | – | – | – | – | –
6 | O=C(c1ccc([N+](=O)[O-])cc1)N1CCC2(CC1)OCCN2C(=O)c1ccc([N+](=O)[O-])cc1 [Compound C0032] | 92.8 | 87.3 | 248.2 | 145.4 | 202.0 | 80.9 | – | – | – | – | – | –
7 | COc1ccc(CCC(O)CC2c3c(cc4c(c3OC)OCO4)CC[N+]2(C)C)cc1 (stereo not drawn) [Compound B0049] | 102.8 | 143.1 | 506.5 | 181.6 | 364.0 | 133.2 | – | – | – | – | – | –
8 | CC1CCC(C(C)C)C(OCC(O)CN2CCN(CCN3CCOCC3)CC2)C1 (stereo not drawn) [Compound A0011] | 158.2 | 124.9 | 177.4 | 236.3 | 287.5 | 47.0 | – | – | – | – | – | –
9 | O=C(O)c1ccc(C(=O)N2CCC3(CC2)OCCN3S(=O)(=O)c2ccc(C(=O)O)cc2)cc1 [Compound C0021] | 94.5 | 87.8 | 546.4 | 159.7 | 192.0 | 90.7 | – | – | – | – | – | –
10 | COc1ccc(C(=O)CC2c3c(cc4c(c3OC)OCO4)CC[N+]2(C)C)c(O)c1 (stereo not drawn) [Compound B0033] | 77.6 | 69.2 | 95.4 | 149.3 | 188.9 | 41.9 | – | – | – | – | – | –
11 | N#Cc1ccc(S(=O)(=O)N2CCC3(CC2)OCCN3S(=O)(=O)c2ccc(C#N)cc2)cc1 [Compound C0008] | 41.4 | 72.9 | 4.4 | 71.2 | 201.6 | 2.8 | – | – | – | – | – | –
12 | CC(=O)c1ccc(S(=O)(=O)N2CCC3(CC2)OCCN3S(C)(=O)=O)cc1 [Compound C0056] | 68.0 | 83.0 | 196.1 | – | – | – | 98.6 | 86.3 | 193.4 | – | – | –
13 | COc1ccc(S(=O)(=O)N2CCOC23CCCNC3)cc1 (stereo not drawn) [Compound C0145M-3] | 112.2 | 88.7 | 95.3 | – | – | – | 193.0 | 87.0 | 289.2 | – | – | –
